Assay results taken from patent publication US20100279944A1, “SUPPRESSION AND TREATMENT OF NEUROPATHIC PAIN” (priority 2006, published 2010).
Where a SMILES comes first, the peptide text is derived from it. [ ]: non-standard residue; d: D form.

Experiments:
[1] = Recovery, side effects and body weight of SCI rats after peptide treatment; format: in vivo, rat; conditions: 200 μg/kg i.v., six bolus doses after SCI
Experimental: Seventeen individually housed male Wistar rats (Charles River, St. Constant, Quebec, 250-320 g) were used to assess mechanical allodynia and hind-limb locomotion. Males were used in these studies to avoid the confounding variable of hormonal cycles on the assessments of neuropathic pain. All protocols were carried out in accordance with the guidelines set forth by the Canadian Guide to Care and Use of Experimental Animals. All experiments conformed to international guidelines on the ethical use of animals and minimized the number of animals used and their suffering. All rats received pre-operative medication and halothane anesthesia for surgical interventions to accomplish clip compression spinal cord injury (SCI), as described previously (Gris et al., (2004), J. Neurosci., v. 24, pp. 4043-4051; Weaver et al., (2001), J. Neurotrauma, v. 18, pp. 1107-1119). A dorsal laminectomy was performed to expose the 12th thoracic (T12) spinal cord segment. The cord was injured by clip compression for 60 sec without disrupting the dura or adjacent dorsal roots. A modified aneurysm clip (Toronto Western Research Institute, University of Toronto, Toronto, Ontario, Canada) calibrated at 35 g was used at the T12 segment to produce a moderate injury. The rats received postoperative care as described previously (Gris, supra). […]

[2] = Mathison et al., 1997; cited from earlier work

| Molecule | side effects of treatment [1] | lowest dose showing biological effects [2] [μg/kg] |
| --- | --- | --- |
| N[C@H](Cc1ccccc1)C(=O)N[C@H](CC(=O)O)C(=O)NCC(=O)O [fdG, D-phenylalanine-D-aspartic acid-Glycine] (H-[dF]-[dD]-Gly-OH) | No overt side effects |  |
| SGP-T: submandibular gland peptide T; amino acid sequence TDIFEGG |  | 1 |
